Values of other authors as cited in publication PMC6376154 (International Journal for Parasitology: Drugs and Drug …, 2019).
Where two headings read alike, the source gives them in different places.

System: P. falciparum 3D7 asexual blood stage
Details: cited from earlier work
[1] = MMV Malaria Box data sheet (supplement mmc2.xls), ref MMV data sheet
[2] = MMV Malaria Box data sheet (supplement mmc2.xls), ref MMV data sheet, read-out: EC50_nM
[3] = value(s) per source (GSK, GNF, StJude), separated by semicolon, ref ChEMBL-NTD, read-out: CHEMBL EC50
[4] = MMV Malaria Box sheet, ref MMV data sheets
[5] = MMV Malaria Box sheet, ref MMV data sheets, read-out: EC50_nM
[6] = source StJude, ref ChEMBL_NTD, read-out: CHEMBL EC50
[7] = source GNF, ref ChEMBL_NTD, read-out: CHEMBL EC50
[8] = MMV Malaria Box data sheet, ref MMV data sheets, read-out: EC50_nM
[9] = ChEMBL-NTD value per source (GNF, GSK, StJude), several values in a cell follow the order of the sources, read-out: CHEMBL EC50
[10] = MMV Malaria Box data sheet, ref MMV data sheets
[11] = source GSK, ref ChEMBL_NTD, read-out: CHEMBL EC50

OC(CNC1CCCC1)Cn1c2ccccc2c2ccccc21 (stereo not shown) [MMV000848]
percent_inh @ 5 uM [1]: 97%
EC50 [2]: 0.66 µM
EC50 [3]: 1.08 µM

Cc1ccc(NC(=O)Nc2cccc(Cl)c2)cc1F [MMV000911]
percent_inh @ 5 uM [1]: 52%
EC50 [3]: 15 µM

COc1ccc2c(c1OC)C(=O)N1c3ccccc3N=C(c3ccc(C)cc3)CC21 (stereo not shown) [MMV000917]
percent_inh @ 5 uM [4]: 93%
EC50 [5]: 1.24 µM
EC50 [6]: 2.53 µM

COc1ccc(Nc2nc(NCc3ccccc3)c3ccccc3n2)cc1 [MMV000963]
EC50 [5]: 0.589 µM
EC50 [7]: 0.212 µM
EC50 [6]: 1.31 µM

O=C1CC(O)(C(F)(F)C(F)(F)F)Oc2ccccc21 (stereo not shown) [MMV000972]
percent_inh @ 5 uM [4]: 95%
EC50 [6]: 2.57 µM

Cc1ccc(Nc2nc(NCCO)c3ccccc3n2)cc1C [MMV001038]
EC50 [8]: 0.428 µM
EC50 [7]: 0.175 µM
EC50 [6]: 0.843 µM

CC(C)c1ccc(CNCC(O)c2ccccc2)cc1 (stereo not shown) [MMV001049]
percent_inh @ 5 uM [4]: 96%
EC50 [5]: 1.26 µM
EC50 [6]: 1.35 µM

CCOc1cccc2sc(N(Cc3cccnc3)C(=O)C3CCCCC3)nc12 [MMV001230]
percent_inh @ 5 uM [1]: 94%
EC50 [3]: 3.04 µM

COc1ccc2sc(N(Cc3cccnc3)C(=O)c3ccc(C#N)cc3)nc2c1 [MMV001239]
EC50 [9]: 15 µM

COc1ccc(C)c2sc(N(Cc3cccnc3)C(=O)c3ccc(C#N)cc3)nc12 [MMV001241]
percent_inh @ 5 uM [4]: 91%
EC50 [6]: 15 µM

CSc1ccccc1C(=O)Nc1nc(-c2ccccn2)cs1 [MMV001246]
percent_inh @ 5 uM [10]: 98%
EC50 [8]: 0.206 µM
EC50 [6]: 6.82 µM

CCCCc1ccc(NS(=O)(=O)c2cc3c4c(c2)CCN4C(=O)CC3)cc1 [MMV001255]
percent_inh @ 5 uM [10]: 96%
EC50 [8]: 0.538 µM
EC50 [6]: 15 µM

O=C(Nc1ccc(Br)cc1)Nc1cccc(Cl)c1 [MMV001318]
percent_inh @ 5 uM [4]: 94%
EC50 [6]: 15 µM

CC1CC(C)CN(C(=O)c2ccc(Cl)cc2Cl)C1 (stereo not shown) [MMV001344]
percent_inh @ 5 uM [1]: 95%
EC50 [2]: 0.756 µM
EC50 [3]: 1.32 µM

CCN(CC)CCNc1ccnc2cc(Cl)ccc12 [MMV006087]
EC50 [8]: 0.0581 µM
EC50 [7]: 0.00716 µM

c1ccc(CNc2nc(Nc3ccccc3)nc3ccccc23)cc1 [MMV006169]
EC50 [9]: 0.158 µM

CN1CCN(c2ccc(Nc3c4ccccc4nc4ccccc34)cc2)CC1 [MMV006172]
percent_inh @ 5 uM [10]: 97%
EC50 [8]: 0.142 µM
EC50 [7]: 0.0567 µM
EC50 [11]: 0.645 µM

O=C(NCc1ccco1)C1CCN(S(=O)(=O)c2ccc(Cl)cc2)CC1 [MMV006188]
percent_inh @ 5 uM [1]: 94%
EC50 [2]: 0.891 µM
EC50 [3]: 0.514 µM

Cc1cc(NCCN2CCCCC2)c2ccc3ccccc3c2n1 [MMV006203]
percent_inh @ 5 uM [10]: 99%
EC50 [8]: 0.3 µM
EC50 [7]: 0.0441 µM

CCOC(=O)c1cnc2c(C)cccc2c1Nc1ccc(C(C)=O)cc1 [MMV006250]
percent_inh @ 5 uM [4]: 94%
EC50 [5]: 0.314 µM
EC50 [7]: 0.119 µM

CCc1c(C)c(=N)c2ccccc2n1C [MMV006278]
percent_inh @ 5 uM [10]: 76%
EC50 [8]: 0.378 µM
EC50 [7]: 0.701 µM

CCN(CC)CCNc1ccnc2cc3ccccc3cc12 [MMV006303]
EC50 [9]: 0.0286 µM

CN(C)c1ccc(C=Cc2nc(=O)c3ccccc3o2)cc1 [MMV006309]
percent_inh @ 5 uM [10]: 96%
EC50 [8]: 0.0515 µM
EC50 [11]: 0.0446 µM

Cc1cc(Nc2cccc(F)c2)nc(NCc2ccccc2)n1 [MMV006319]
percent_inh @ 2 uM (2 uM, MMV Malaria Box sheet, ref MMV data sheets): 97%
EC50 [5]: 0.662 µM
EC50 [7]: 0.0722 µM

O=C1c2ccccc2C2=Nc3ccccc3SC(c3cccc(F)c3)C12 (stereo not shown) [MMV006389]
percent_inh @ 5 uM [4]: 94%
EC50 [5]: 0.415 µM
EC50 [7]: 0.0867 µM

COc1cc(OC)c(N(C)C(=O)c2cc3c(s2)-c2ccccc2S(=O)(=O)C3)cc1Cl [MMV006427]
percent_inh @ 5 uM [10]: 100%
EC50 [8]: 0.0782 µM
EC50 [7]: 0.113 µM

Cc1cc(NC(=O)C2c3ccccc3C(=O)N(CC(C)C)C2c2cccs2)no1 (stereo not shown) [MMV006429]
percent_inh @ 5 uM [10]: 100%
EC50 [8]: 0.0328 µM
EC50 [7]: 0.0856 µM

CCOC(=O)c1ccc2nc(-c3ccccc3)cc(O)c2c1 [MMV006457]
percent_inh @ 5 uM [10]: 96%
EC50 [8]: 0.118 µM
EC50 [7]: 0.549 µM

c1ccc2c(NCCc3c[nH]c4ccccc34)c3ccccc3nc2c1 [MMV006513]
percent_inh @ 5 uM [4]: 97%
EC50 [5]: 0.304 µM
EC50 [7]: 0.086 µM

CCOc1ccc2nc(C)cc(Nc3ccc(Br)cc3)c2c1 [MMV006522]
EC50 [9]: 0.114 µM

CCN(CC)CCNc1ncnc2c1[nH]c1ccc(Br)cc12 [MMV006545]
EC50 [2]: 0.707 µM
EC50 [3]: 0.288 µM
